Data from patent US9233903B2, “Pharmaceutical substances on the basis of mitochondria-addressed antioxidants” (Mitotech SA, priority 2009, dated 2016).
Values belong to the compound of their own block, whether it stands above or below them.

Key:
[1] = test system: E. coli MG1655 pLUX::PkatG
Text: (§1) To test pro-oxidant and antioxidant properties of mitochondria-addressed compounds of general formula (I), a method for determining oxidative stress in E. coli cells was developed. For this purpose, a biosensor system was created based on luxAB genes encoding bacterial luciferases to study effect of penetrating ions on oxidative stress in a bacterial cell.
The lux-biosensors were developed on the basis of these inducible promoters.
(§2) All the promoters used in the method, with corresponding regulatory regions, were obtained from the genome of the E. coli K12 MG1655 bacteria by the PCR method with the use of specific synthesized primers. A non-promoter vector with the pBR322 replicon and bla gene responsible for resistance to ampicillin (selective marker) was used as a vector. The promoter region was embedded into the plasmid at the EcoRI-BamHI sites. The lux operon of Ph. luminescens consisting of five genes, luxCDABE, was selected as the lux cassette.
(§3) In the first phase of testing, conditions for oxidative stress induction at which the maximum induction of luminescence occurs, were selected.

[2] = test system: HeLa and normal human diploid fibroblasts; assay: Protection of cells against H2O2-induced death (apoptosis), Hoechst/PI counting; assay type: cell-based; conditions: incubation with the cells for 5 to 7 days
Procedure: Testing of the antioxidant capacity of the compounds was performed using the methods of cytofluometry and fluorescence microscopy.
In preliminary experiments for each cell culture, the optimal concentration of H2O2 which causes significant (60% to 80%) cell apoptosis with no visible signs of necrosis was selected. To determine the chromatin condensation and fragmentation which occurs in apoptotic cells, the fluorescent dye Hoechst was used. The dye at a concentration of 1 μg/ml was added to live or fixed cells at the end of a 30 min incubation. To determine necrosis, the fluorescent dye propidium iodide (PI) at a concentration of 2 μg/ml was added to non-fixed cells. The percentage of apoptotic and necrotic cells was determined by counting the number of cells with fragmented nuclei and cells permeable to propidium iodide, respectively.

gramicidin channels [3] = assay: Protection of gramicidin channels in bilayer membrane, damage by FeSO4, ascorbate and tert-butyl hydroperoxide; assay type: biochemical; conditions: FeSO4, ascorbate, tert-butyl hydroperoxide; FIG. 3B
Text: A method was developed which allows the study of the antioxidant activity of compounds in a simple system consisting of a bilayer membrane, […]). […]

[4] = Penetrating ability on artificial black (bilayer phospholipid) membranes, membrane potential; assay type: physicochemical; conditions: for penetrating ability: bilayer membrane, comparison between compounds; for membrane potential (Δψ) generated: concentration range from 10^−7 to 10^−6 M, FIG. 2B
Text: To test the penetrating ability of mitochondria-addressed compounds of structure (I), a method is used based on the ability of ions to penetrate through the phospholipid membrane bilayer moving along the concentration gradient. […] If a charged substance can penetrate through the bilayer membrane, its rapid diffusion out of the chamber having a high concentration of the substance, to the chamber having a low concentration of the substance, occurs, and thus a membrane potential difference is created. For ions which are carrying one charge and able to easily penetrate through the membrane, a 10-fold concentration gradient allows for creation of a potential of 60 mV (according to the Nernst equation). This method was used in various studies of the ability of ions to pass through the lipid bilayer of the membrane.

HeLa cells = assay: H2O2-induced oxidative stress in cells, DCF-DA cytofluorimetry; assay type: cell-based, human; conditions: incubation for 1 to 5 hours
Procedure: To measure the level of oxidative stress stimulated by H2O2, cells were stained with fluorescent dye DCF-DA (2′,7′-dichloro-dihydrofluorescein diacetate), and the level of fluorescence of the dye was measured with a cytofluorimeter.
Estimates were made on the basis of seven experiments. Data were estimated with respect to a group of the control cells lying on the diagram in the area of low DCF-DA fluorescence (50% of the population), this group of cells was taken as 100% and indicators for every action were estimated relative to this group.

mitochondria = assay: Accumulation in mitochondria measured with tetraphenylphosphonium-selective electrode; assay type: in vitro ADME; conditions: FCCP uncoupler; FIG. 4
Procedure: The ability of compounds of general formula (I) to accumulate in mitochondria was tested using a tetraphenylphosphonium-selective electrode. The method is used for compounds of general formula (I) in which the lipophilic cation tetraphenylphosphonium is used as the target group. With this electrode, it is possible to measure distribution of tetraphenylphosphonium cation (or compounds which comprise this cation) between the mitochondrial matrix and the medium.

[5] = Solubility in aqueous solutions
[6] = test system: E. coli MG1655 pLUX::PsoxS; assay type: cell-based
Text: as §1
The PsoxS promoter is activated when superoxide ion-radical appears in the environment. The lux-biosensors were developed on the basis of these inducible promoters.
as §2, §3

gramicidin channels [7] = assay: Protection of gramicidin channels in bilayer membrane, damage by photoactivated phthalocyanine; assay type: biochemical; conditions: photoactivation of phthalocyanine; FIG. 3A
Text: A method was developed which allows the study of the antioxidant activity of compounds in a simple system consisting of a bilayer membrane, a conducting protein gramicidin and a photosensitizer (Mito Tracker Red, Invitrogen, Carlsbad, Calif.), thrice sulfonated aluminum phthalocyanine or zinc phthalocyanine). The method uses the ability of reactive oxygen species generated by photoactivation of the photosensitizer molecules to damage gramicidin channels, resulting in a sharp decrease in the conducting ability of the bilayer membrane.

Compound: OO [Compound H2O2, hydrogen peroxide]
- time at which induction of luminescence becomes evident ([1]; FIG. 10A): ≤ 15 min
- time to maximum luminescence ([1]; FIG. 10A): one hour
- ratio of luminescence intensity between control cells and induced cells ([1]; optimal concentrations of H2O2): 1/80

Compound: COC1=C(OC)C(=O)C(CCCCCCCCCC[P+](c2ccccc2)(c2ccccc2)c2ccccc2)=C(C)C1=O [MitoQ]
- resistance of cells to H2O2 [2]: increase resistance of cells to H2O2
- antioxidant efficiency, protection of gramicidin channels (gramicidin channels [3]): less efficient antioxidants
- penetrating ability [4]: less penetrating abilities compared to SkQ3 or SkQR1
- effect on H2O2-induced oxidative stress in cells (HeLa cells): did not prevent

Compound: CC1=C(C)C(=O)C(CCCCCCCCCC[P+](c2ccccc2)(c2ccccc2)c2ccccc2)=CC1=O [SkQ1, [10-(4,5-dimethyl-3,6-dioxo-cyclohexa-1,4-dien-1-yl)decyl]-triphenylphosphonium bromide]
- energy-independent accumulation in mitochondria (mitochondria): independent of the degree of energization of the mitochondria

Compound: CC1=C(C)C(=O)C(CCCCCCCCCC[P+](c2ccccc2)(c2ccccc2)c2ccccc2)=C(C)C1=O [SkQ3]
- antioxidant efficiency, protection of gramicidin channels (gramicidin channels [3]): less efficient antioxidants

- energy-independent accumulation in mitochondria (mitochondria): reduced
Compound: CC1=C(C)C(=O)C(CCCCC[P+](c2ccccc2)(c2ccccc2)c2ccccc2)=CC1=O [SkQ5]

- solubility in aqueous solutions [5]: poor solubility
- membrane potential (Δψ) generated [4]: almost the same Δψ as SkQ1
Compound: COc1ccc2c(CC(=O)OCCCCCCCC3=CC(=O)C(C)=C(C)C3=O)c3[n+](cc2c1OC)CCc1cc2c(cc1-3)OCO2 [SkQB1, 13-[7-(4,5-dimethyl-3,6-dioxo-cyclohexa-1,4-dien-1-yl)heptyloxycarbonyl-methyl]berberine]

- membrane potential (Δψ) generated [4]: almost the same Δψ as SkQ1
Compound: COc1cc2c(cc1OC)-c1c(CC(=O)OCCCCCCCC3=CC(=O)C(C)=C(C)C3=O)c3ccc(OC)c(OC)c3c[n+]1CC2 [SkQBP1, 13-[7-(4,5-dimethyl-3,6-dioxo-cyclohexa-1,4-dien-1-yl)heptyloxycarbonyl-methyl]palmatine]

- penetrating ability [4]: higher penetrating ability
Compound: CC/N=c1/cc2oc3cc(NCC)c(C)cc3c(-c3ccccc3C(=O)OCCCCCCCCCCC3=CC(=O)C(C)=C(C)C3=O)c-2cc1C [SkQR1]
- concentration above which compound ceases to obey the Nernst equation (membrane damage) ([4]; FIG. 2A): higher than 5×10^−5 M
- effect on H2O2-induced oxidative stress in cells (HeLa cells): has antioxidant activity

Compound: C[n+]1ccc(-c2cc[n+](C)cc2)cc1 [paraquat]
- time at which induction of luminescence becomes evident ([6]; FIG. 10B): 15 to 20 min
- time to maximum luminescence ([6]; FIG. 10B): two hours
- ratio of luminescence intensity between control cells and induced cells ([6]; optimal concentrations of paraquat): 1/100

Compound: superoxide dismutase
- prevention of fall in membrane conductance (gramicidin channels) (gramicidin channels [7]): effectively blocked
